Data on one compound can be found in ChEMBL document CHEMBL5154862, “Structure-Based Discovery of MDM2/4 Dual Inhibitors that Exert Antitumor Activities against MDM4-Overexpressing Cancer Cells” (J Med Chem, 2022).

The source made the active and inactive calls. The rule behind the calls is not given here.

The test system of series [1] is RKO. Kind of series: Induction of apoptosis in human RKO cells assessed as necrotic cells at 12.5 uM measured after 48 hrs by Annexin V-FITC/PI staining based flow cytometry analysis (reference value: 2.08 %). The series is classed as functional.
The target in series [2] is Cyclin-dependent kinase inhibitor 1 (Homo sapiens) (UniProt P38936). Kind of series: Activation of p21 in human HCT-116 cells incubated for 24 hrs by Western blot analysis. The series is classed as cell-based. The note with it: filed as activator, dose 0.078125-2.5 µM, DDE = dose-dependent effect.
Cyclin-dependent kinase inhibitor 1 (Homo sapiens), sequence (P38936 whole entry): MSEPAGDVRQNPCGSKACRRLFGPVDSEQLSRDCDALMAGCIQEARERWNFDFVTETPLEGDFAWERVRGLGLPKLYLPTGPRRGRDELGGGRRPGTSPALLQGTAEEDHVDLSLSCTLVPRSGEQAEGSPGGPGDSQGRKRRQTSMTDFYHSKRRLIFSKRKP
The test system of another series is U2OS. Kind of series: Upregulation of MDM2 protein expression in human U2OS cells at 2.5 uM measured after 24 hrs by Western blot analysis. It is filed as functional, cell-based.
Series [3] has as its system RKO. As to the kind of experiment: Induction of apoptosis in human RKO cells assessed as viable cells at 12.5 uM measured after 48 hrs by Annexin V-FITC/PI staining based flow cytometry analysis (reference value: 93.54 %). The series is classed as functional. The note with it: read-out: Activity.
In a further series the test system is NCI-H460. As to the kind of experiment: Downregulation of MDM4 protein expression in human NCI-H460 cells at 2.5 uM measured after 24 hrs by Western blot analysis. It is filed as functional, cell-based.
The nature of series [4]: Cytotoxicity against HEK293 cells assessed as cell growth inhibition incubated for 4 days by CCK-8 assay. The series is classed as toxicity, cell-based. The note with it: human.
In series [5] the test system is MCF7. Kind of series: cells. The note with it: Homo sapiens, MCF7, 96 h.
Series [6] has as its system MCF7. As to the kind of experiment: Effect on MDM4 protein expression in human MCF7 cells at 2.5 uM measured after 24 hrs by Western blot analysis. The series is classed as functional, cell-based.
Another series has as its system SW480. As to the kind of experiment: cells. The note with it: Homo sapiens, SW480, 96 h.
For series [7], the system named is RKO. As to the kind of experiment: Induction of apoptosis in human RKO cells assessed as early apoptotic cells at 6.25 uM measured after 48 hrs by Annexin V-FITC/PI staining based flow cytometry analysis (reference value: 3.56 %). It is filed as functional.
Series [8] has as its system RKO. As to the kind of experiment: Induction of apoptosis in human RKO cells assessed as viable cells at 6.25 uM measured after 48 hrs by Annexin V-FITC/PI staining based flow cytometry analysis (reference value: 93.54 %). The series is classed as functional. The note with it: read-out: Activity.
For series [9], the system named is MCF7. Kind of series: Upregulation of MDM2 protein expression in human MCF7 cells at 2.5 uM measured after 24 hrs by Western blot analysis. The series is classed as functional, cell-based.
Series [10] concerns RKO. Kind of series: Upregulation of p53 expression in human RKO cells incubated for 24 hrs by Western blot analysis. The note with it: dose 0.3125-2.5 µM, DDE = dose-dependent effect. The series is classed as functional, cell-based.
Series [11] in a line: Cmax in ICR mouse at 15 mg/kg, po measured upto 24 hrs by LC-MS/MS analysis. The series is classed as ADME, organism-based. The arrangement: time < 24 hrs, dose 15 mg/kg, route po. The note with it: in vivo.
A short description of series [12]: Oral bioavailability in ICR mouse at 15 mg/kg measured upto 24 hrs by LC-MS/MS analysis. The note with it: in vivo. It is filed as ADME, organism-based.
A short description of series [13]: Displacement of 5-FAM labeled PDI peptide from MDM4 C17S mutant (14 to 111 residues) (unknown origin) expressed in Escherichia coli BL21 (DE3) assessed as inhibition constant incubated for 1.5 hrs by fluorescence polarization competition assay. The arrangement: species or system Homo sapiens.
Series [14] has as its system RKO. As to the kind of experiment: Induction of apoptosis in human RKO cells assessed as viable cells at 25 uM measured after 48 hrs by Annexin V-FITC/PI staining based flow cytometry analysis (reference value: 93.54 %). The series is classed as functional. The note with it: read-out: Activity.
Series [15] deals with RKO. Kind of series: Upregulation of MDM2 gene expression in human RKO cells incubated for 24 hrs by qPCR analysis. The note with it: dose 0.3125-2.5 µM, DDE = dose-dependent effect. The series is classed as functional, cell-based.

Turning to `COc1cc(C(=O)O)ccc1NC(=O)[C@@H]1N[C@@H](CC(C)(C)C)[C@](CNCc2ccncc2)(c2ccc(Cl)cc2F)[C@H]1c1cccc(Cl)c1F`, the Activity with RKO [1] is 1.6%; in [2], “Dde”; in the series on RKO [7], 6.28%; with RKO [10] it was “Dde”; in the series with RKO [15], “Dde”. The result in the series with U2OS, with NCI-H460, in the series with MCF7 [6] and in the series with MCF7 [9] was Active. Also, in the series with RKO [3], the viability at 12.5 µM came to 85%. In series [4], the IC50 at 4 days worked out at 6250 nM. Besides, the figures for the IC50 in the series with MCF7 [5] and with SW480 were 520 nM and 2820 nM, respectively. Besides, the viability at 6.25 µM in the series with RKO [8] was found to be 74.5%. This compound gave a Cmax in series [11] of 1080 ng/mL. In series [12], this compound gave a bioavailability of 13.5%. Also, in series [13], the inhibition constant Ki was 643 nM. In addition, the viability at 25 µM with RKO [14] amounted to 7.52%.
